Experimental data taken from patent US20210253643A1, “HYDROPHOBIC BIOMOLECULE STABILIZING SCAFFOLD PEPTIDES AND METHODS OF MAKING AND USING SAME” (The University of British Columbia, priority 2018, published 2021).
No end group written: not given here.

What was measured:
[1] = test system: membrane proteins MsbA and FhuA; test: On-gel reconstitution efficiency of membrane proteins; type: biochemical, E. coli; set-up: key: 1 means poor reconstitution; 5 means efficient reconstitution
Procedure: Bands were visualized by Coomassie Blue G250 staining.
(§1) Table 10 summarizes the biophysical, structural and experimental characteristics of the tested NSP peptide variants. […] The number of inter-helix salt bridges formed between the AH1 and AH2 regions for each of the tested amphipathic peptide variants was also determined.

[2] = Peptide solubility by turbidity of peptide suspensions at 550 nm; settings: for Solubility: Experiment #1, score 1 to 5, turbidity at 550 nm; for Solubility (/5): Experiment #2, score 1 to 5
Procedure: The solubility of the peptides was determined by measuring the turbidity of each of the peptide suspensions at 550 nm. The numbers 1 to 5 were used denote the degree of solubility, where 1 means poor solubility and 5 means high solubility.

[3] = test system: membrane proteins; test: Competition with equimolar NSPr-FAM during on-gel reconstitution of membrane proteins; type: biochemical; settings: 0 no competition, 100 full competition
Procedure: as §1

[4] = target: T1, photosynthetic bacterial reaction center (BRC) (Cereibacter sphaeroides, UniProt P0C0Y7+P0C0Y8+P0C0Y9); test: Thermostability of the BRC complex (absorbance at 803 nm after incubation at 65° C.); type: physicochemical, Rhodobacter sphaeroides; settings: 0.03% LDAO
T1 construct: placed on H from own knowledge of pIND4-RC1; made in house; host or cells: Rhodobacter sphaeroides RcX (ΔpuhA, ΔpufQBALMX, ΔrshI, ΔppsR), plasmid pIND4-RC1
Procedure: Reconstitution of the BRC in peptidiscs, low lipid nanodiscs, and styrene maleic acid nanoparticles: The purified BRC complex (1 mg/mL) was mixed at a 1:1.8 (μg/μg) ratio with NSPr followed by 10-fold dilution in Buffer A to decrease the LDAO concentration to 0.003%. For formation of low-lipid nanodiscs, the purified BRC complex was instead mixed at a 1:2 (mol/mol) ratio with MSP1D1 before dilution. Alternatively, an equivalent amount of BRC was diluted in Buffer A supplemented with 0.03% LDAO, 0.02% DDM, 0.1% SMA or 0.1% SDS as described. After incubation for 10 minutes on ice, aggregated proteins were removed by centrifugation (13,000×g, 10 min at 4° C.). […]
Absorbance spectroscopy: Absorption spectra were recorded using a Hitachi U-3010 spectrophotometer. A blank measurement was recorded in Buffer A(+0.03% LDAO for detergent purified BRC). Samples were incubated in a PCR thermocycler at the indicated temperature, and then measured at the desired time points in a quartz cuvette at room temperature. […]
The photosynthetic bacterial reaction center (BRC) from Rhodobacter sphaeroides was reconstituted into peptidiscs using NSPr. FIG. 21A illustrates the absorbance scans of the BRC (1 μM) in detergent solution (0.03% LDAO (lauryldimethylamine oxide)) and in peptidisc. Scans were normalized to the value measured at 803 nm (the absorbance peak of the accessory bacteriochlorophylls). […]

[5] = Experiment #1, score 1 to 5, on-gel, MsbA and FhuA

| Solubility (/5) [2] | Compound | also measured |
| --- | --- | --- |
|  | Fam-FAEKFKEAVKDYFAKFWD P AAEKLKEAVKDYFAKLWD [NSPr-FAM] | Reconstitution Efficiency (/5) [1, 5]: 5; Reconstitution Efficiency (/5) ([1]; Experiment #2, score 1 to 5): 5 |
| 5 | FAERFREAVRDYFARFWDPAAERLREAVRDYFARLWD [Pos Switch, FAERFREAVRDYFARFWD P AAERLREAVRDYFARLWD] |  |
| 4 /5 | FAEKFKEAVKDYFAKFWDPFAEKFKEAVKDYFAKFWD [Peptide 4F-4F, FAEKFKEAVKDYFAKFWD P FAEKFKEAVKDYFAKFWD] |  |
| 3 /5 | FAEKFKEAVKDYFAKFWDPAAEKLKEAVKDYFAKLW [NSPr-36, FAEKFKEAVKDYFAKFWD P AAEKLKEAVKDYFAKLW] |  |
| 4 /5 | FADKFKDAVKEYFAKFWEPAADKLKDAVKEYFAKLWE [Neg Switch, FADKFKDAVKEYFAKFWE P AADKLKDAVKEYFAKLWE] |  |
| 4 /5 | YAEKFKEAVKDYFAKFYDPAAEKLKEAVKDYFAKLWD [Phe/Tyr Switch, YAEKFKEAVKDYFAKFYD P AAEKLKEAVKDYFAKLWD] |  |
| 4 /5 | FAEKFKEAVKDYFAKFWDGAAEKLKEAVKDYFAKLWD [Pro/Gly Switch, FAEKFKEAVKDYFAKFWD G AAEKLKEAVKDYFAKLWD] |  |
| 3 /5 | CC(C)C[C@H](NC(=O)[C@H](CCCCN)NC(=O)[C@H](C)NC(=O)[C@H](Cc1ccccc1)NC(=O)[C@H](Cc1ccc(O)cc1)NC(=O)[C@H](CC(=O)O)NC(=O)[C@H](CCCCN)NC(=O)[C@@H](NC(=O)[C@H](C)NC(=O)[C@H](CCC(=O)O)NC(=O)[C@H](CCCCN)NC(=O)[C@H](CC(C)C)NC(=O)[C@H](CCCCN)NC(=O)[C@H](CCC(=O)O)NC(=O)[C@H](C)NC(=O)[C@H](C)NC(=O)[C@@H]1CCCN1C(=O)[C@H](CC(=O)O)NC(=O)[C@H](Cc1c[nH]c2ccccc12)NC(=O)[C@H](Cc1ccccc1)NC(=O)[C@H](CCCCN)NC(=O)[C@H](C)NC(=O)[C@H](Cc1ccccc1)NC(=O)[C@H](Cc1ccc(O)cc1)NC(=O)[C@H](CC(=O)O)NC(=O)[C@H](CCCCN)NC(=O)[C@@H](NC(=O)[C@H](C)NC(=O)[C@H](CCC(=O)O)NC(=O)[C@H](CCCCN)NC(=O)[C@H](Cc1ccccc1)NC(=O)[C@H](CCCCN)NC(=O)[C@H](CCC(=O)O)NC(=O)[C@H](C)NC(=O)[C@H](Cc1ccccc1)NC(=O)[C@H](Cc1c[nH]cn1)NC(=O)[C@H](Cc1c[nH]cn1)NC(=O)[C@H](Cc1c[nH]cn1)NC(=O)[C@H](Cc1c[nH]cn1)NC(=O)[C@H](Cc1c[nH]cn1)NC(=O)[C@@H](N)Cc1c[nH]cn1)C(C)C)C(C)C)C(=O)N[C@@H](Cc1c[nH]c2ccccc12)C(=O)N[C@@H](CC(=O)O)C(=O)O [NSPr-6xHis, HHHHHH FAEKFKEAVKDYFAKFWD P AAEKLKEAVKDYFAKLWD] |  |
|  | FAEKFKEAVKDYFAKFWDGAAEKLKEAVKDYFAKLWD [NSPr-G, FAEKFKEAVKDYFAKFWD G AAEKLKEAVKDYFAKLWD] | Solubility [2]: 5 |
| 5 | FAAKFKEAVKDYFAKFWDPAAEKLAEAVADYFAALWD [3 SB Disruption H2, FAAKFKEAVKDYFAKFWD P AAEKLAEAVADYFAALWD] |  |
| 5 | FAEKLKEAVKDYLAKFWDPAAEKLKEAVKDYFAKLWD [Peptide 2F-1F, FAEKLKEAVKDYLAKFWD P AAEKLKEAVKDYFAKLWD] |  |
| 5 | CC(C)C[C@H](NC(=O)[C@H](CCCCN)NC(=O)[C@H](C)NC(=O)[C@H](Cc1ccccc1)NC(=O)[C@H](Cc1ccc(O)cc1)NC(=O)[C@H](CC(=O)O)NC(=O)[C@H](CCCCN)NC(=O)[C@@H](NC(=O)[C@H](C)NC(=O)[C@H](CCC(=O)O)NC(=O)[C@H](CCCCN)NC(=O)[C@H](CC(C)C)NC(=O)[C@H](CCCCN)NC(=O)[C@H](CCC(=O)O)NC(=O)[C@H](C)NC(=O)[C@H](C)NC(=O)[C@@H]1CCCN1C(=O)[C@H](CC(=O)O)NC(=O)[C@H](Cc1c[nH]c2ccccc12)NC(=O)[C@H](Cc1ccccc1)NC(=O)[C@H](CCCCN)NC(=O)[C@H](C)NC(=O)[C@H](Cc1ccccc1)NC(=O)[C@H](Cc1ccc(O)cc1)NC(=O)[C@H](CC(=O)O)NC(=O)[C@H](CCCCN)NC(=O)[C@@H](NC(=O)[C@H](C)NC(=O)[C@H](CCC(=O)O)NC(=O)[C@H](CCCCN)NC(=O)[C@H](Cc1ccccc1)NC(=O)[C@H](CCCCN)NC(=O)[C@H](CCC(=O)O)NC(=O)[C@H](C)NC(=O)[C@H](Cc1ccccc1)NC(=O)[C@@H](N)CS)C(C)C)C(C)C)C(=O)N[C@@H](Cc1c[nH]c2ccccc12)C(=O)N[C@@H](CC(=O)O)C(=O)O [NSPr-C, C FAEKFKEAVKDYFAKFWD P AAEKLKEAVKDYFAKLWD] | Solubility [2]: 5 |
| 4 /5 | FAEKLKEAVKDYFAKLWDPFAEKLKEAVKDYFAKLWD [Peptide 2F-2F, FAEKLKEAVKDYFAKLWD P FAEKLKEAVKDYFAKLWD] |  |
| 5 | FAEAFKEAVKDYFAAFWDPAAEKLKEAVKDYFAKLWD [2 SB Disruption, FAEAFKEAVKDYFAAFWD P AAEKLKEAVKDYFAKLWD] |  |
| 4 /5 | FAEKFKEAVKDYFAKFWDPAAEKLKEAVKDYFAKFWD [Peptide 4F-2F, FAEKFKEAVKDYFAKFWD P AAEKLKEAVKDYFAKFWD] |  |
| 5 | FAEKFKEAVKDYFAKLWDPAAEKLKEAVKDYFAKLWD [Peptide 3F-1F, FAEKFKEAVKDYFAKLWD P AAEKLKEAVKDYFAKLWD] |  |
| 4 /5 | FAEKFKEAVKDYFAKFWDPAAEKFKEAVKDYFAKLFD [Peptide 4F-3F, FAEKFKEAVKDYFAKFWD P AAEKFKEAVKDYFAKLFD] |  |
| 4 /5 | WAEKFKEAVKDYWAKFWDPAAEKLKEAVKDYWAKLWD [Phe/Trp Switch, WAEKFKEAVKDYWAKFWD P AAEKLKEAVKDYWAKLWD] |  |
| 4 /5 | FAEKFKEAVKDQFAKFWDPAAEKLKEAVKDQFAKLWD [Tyr/Gln Switch, FAEKFKEAVKDQFAKFWD P AAEKLKEAVKDQFAKLWD] |  |
|  | CCCCCCCCCCCC[N+](C)(C)[O-] [LDAO, lauryldimethylamine oxide] | Time to full denaturation of BRC [4]: less than 4 minutes |
| 5 | FVEKFKEVAKDYFVKFWDPVVEKLKEVAKDYFVKLWD [Ala/Val Switch, FVEKFKEVAKDYFVKFWD P VVEKLKEVAKDYFVKLWD] |  |
| 5 | FAEAFKEAVKDYFAKFWDPAAEKLKEAVKDYFAKLWD [1 SB Disruption, FAEAFKEAVKDYFAKFWD P AAEKLKEAVKDYFAKLWD] |  |
| 5 | FAEKFKEAVKPYFAKFWDPAAEKLKEAVKPYFAKLWD [NSPr-3P, FAEKFKEAVKPYFAKFWD P AAEKLKEAVKPYFAKLWD] | Solubility [2]: 5 |

| Compound | Solubility (/5) [2] | also measured |
| --- | --- | --- |
| FAEKFKEAVKDYFAKFWD P AAEKLKEAVKDYFAKLWD-pyrenebutyric acid [NSPr-pyrene] | 5 | Reconstitution Efficiency (/5) [1, 5]: 4 /5; Reconstitution Efficiency (/5) ([1]; Experiment #2, score 1 to 5): 4 /5; Solubility [2]: 5 |
| DWLKAFYDKVAEKLKEAAPDWFKAFYDKVAEKFKEAF [NSP, DWLKAFYDKVAEKLKEAA P DWFKAFYDKVAEKFKEAF] | 3 /5 |  |
| Ac-DWLKAFYDKVAEKLKEAAPDWFKAFYDKVAEKFKEAF-NH2 [Ac-NSP-NH2, Ac-DWLKAFYDKVAEKLKEAA P DWFKAFYDKVAEKFKEAF-NH2] | 1 | Competition peptide (% NSPr-FAM) ([3]; Experiment #1, equimolar NSPr-FAM and variant): 10%; Competition NSPr-FAM (±10%) ([3]; Experiment #2): 10%; Reconstitution Efficiency (/5) [1, 5]: 2 /5; Reconstitution Efficiency (/5) ([1]; Experiment #2, score 1 to 5): 2 /5; Solubility [2]: 1 |
